Reference: article PMC5428521, “Identification of a Novel, Small Molecule Partial Agonist for the Cyclic AMP Sensor, EPAC1” (Scientific Reports, 2017)
“And” between values parts separate entries of the source, which are not always exact repeats. Identical values can stand only once. Like-named read-outs stand apart in the source and are kept apart here.

Tests used:
EPAC1-CNB = target: T1, EPAC1-CNB (Homo sapiens, UniProt O95398); assay: 8-NBD-cAMP competition assay with EPAC1-CNB; format: binding; conditions: for IC50: 7-point dose response, 75 µM top concentration, 0.75% DMSO
T1 construct: EPAC1-CNB (amino acids 169–318 of EPAC1); made in house; host or cells: BL-21 Escherichia coli (pGEX-6P-1)
T1 sequence (O95398 169-318 isoform O95398-3): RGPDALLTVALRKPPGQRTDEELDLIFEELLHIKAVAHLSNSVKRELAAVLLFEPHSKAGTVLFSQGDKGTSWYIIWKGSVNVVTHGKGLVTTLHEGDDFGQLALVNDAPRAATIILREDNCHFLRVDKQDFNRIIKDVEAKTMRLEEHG
Procedure: Optimisation of assay conditions was performed in 96 well black assay plates (Greiner). Comparison of reference molecules, dose response curves and pilot screen were done in black, low volume 384 assay plates (Greiner). Liquids were dispensed using a Biomek Fx laboratory automation workstation with a 96-multichannel pipetting head (Beckman Coulter) for optimisation, whereas the Echo® Liquid Handler (Labcyte) and Wellmate automated dispenser (Thermo Matrix) were employed for pilot screens (see library screening).
This was done using the optimised assay conditions developed during the study. Library compounds were transferred from pre-prepared, 1000x stock Echo® 384 LDV source plates (Labcyte) into black, low volume 384 assay plates (Greiner) at 25 nl volumes, using an Echo® Liquid Handler (Labcyte), maintaining 0.1–1% DMSO throughout. EPAC1-CNB (0.8 µM) was immediately added using a Wellmate automated dispenser (Thermo Matrix). Plates were centrifuged at 800 rpm, 10 s, and then incubated for 30 minutes, RT, to promote compound-protein complex formation. […] The assay was incubated at room temperature and the fluorescence intensity at 480/535 nm (ex/em) was measured after 4–15 hours using the Envision plate reader.

[1] = target: T2, EPAC2 (amino acids 280–993) (Mus musculus, UniProt Q9EQZ6); assay: In vitro GEF activity assay (MANT-GDP dissociation from Rap1), EPAC2; format: biochemical; conditions: for IC50: IC50, GEF Inhibition (with cAMP), 50 μM cAMP; for GEF Activation (no cAMP), AC50 / induced EPAC2 activity: absence of cAMP, N/A = inability to promote GEF activity of EPAC2
T2 construct: EPAC2 (amino acids 280–993); made in house; host or cells: bacteria
T2 sequence (Q9EQZ6 280-993 isoform Q9EQZ6-3): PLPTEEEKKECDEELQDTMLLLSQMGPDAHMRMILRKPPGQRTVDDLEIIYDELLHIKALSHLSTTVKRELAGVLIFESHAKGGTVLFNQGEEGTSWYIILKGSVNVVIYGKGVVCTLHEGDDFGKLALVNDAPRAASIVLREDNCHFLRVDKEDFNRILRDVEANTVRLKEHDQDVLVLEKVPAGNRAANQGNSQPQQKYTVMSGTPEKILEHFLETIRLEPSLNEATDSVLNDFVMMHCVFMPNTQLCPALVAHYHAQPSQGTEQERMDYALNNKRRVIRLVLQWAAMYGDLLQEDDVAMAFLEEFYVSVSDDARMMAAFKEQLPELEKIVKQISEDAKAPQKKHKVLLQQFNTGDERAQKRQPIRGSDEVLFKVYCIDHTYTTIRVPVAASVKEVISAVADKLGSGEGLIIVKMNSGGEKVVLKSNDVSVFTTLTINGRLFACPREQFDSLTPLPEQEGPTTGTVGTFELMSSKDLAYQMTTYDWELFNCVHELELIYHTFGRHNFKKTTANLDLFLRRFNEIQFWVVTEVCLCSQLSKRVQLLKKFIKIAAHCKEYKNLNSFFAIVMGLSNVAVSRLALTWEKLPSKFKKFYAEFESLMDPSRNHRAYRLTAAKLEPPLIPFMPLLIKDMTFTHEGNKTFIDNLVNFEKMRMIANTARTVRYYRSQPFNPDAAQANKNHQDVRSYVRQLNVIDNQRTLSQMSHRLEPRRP
Procedure: (§1) EPAC1 and EPAC2 in vitro GEF activities were calculated as previously described. Briefly, recombinant EPAC1 (amino acids 149–881) or EPAC2 (amino acids 280–993) were incubated at 100 nM with recombinant Rap1 (200 nM) preloaded with the fluorescent GDP analogue 2′/3′-O-(N-Methylanthraniloyl)guanosine 5-diphosphate (MANT-GDP) in the presence of 20 μM GDP and then the fluorescence intensity was measured at 360/450 nm (ex/em) over time. […] AC50 or IC50 values were determined from the plots of kobs against the concentration of the agonist and antagonist, respectively Table 1.

[2] = target: T3, EPAC1 (amino acids 149–881) (Homo sapiens, UniProt O95398); assay: In vitro GEF activity assay (MANT-GDP dissociation from Rap1), EPAC1; format: biochemical; conditions: for AC50: AC50, GEF Activation (no cAMP), from kobs vs concentration
T3 construct: recombinant EPAC1 (amino acids 149–881); made in house; host or cells: bacteria
T3 sequence (O95398 149-881 isoform O95398-3): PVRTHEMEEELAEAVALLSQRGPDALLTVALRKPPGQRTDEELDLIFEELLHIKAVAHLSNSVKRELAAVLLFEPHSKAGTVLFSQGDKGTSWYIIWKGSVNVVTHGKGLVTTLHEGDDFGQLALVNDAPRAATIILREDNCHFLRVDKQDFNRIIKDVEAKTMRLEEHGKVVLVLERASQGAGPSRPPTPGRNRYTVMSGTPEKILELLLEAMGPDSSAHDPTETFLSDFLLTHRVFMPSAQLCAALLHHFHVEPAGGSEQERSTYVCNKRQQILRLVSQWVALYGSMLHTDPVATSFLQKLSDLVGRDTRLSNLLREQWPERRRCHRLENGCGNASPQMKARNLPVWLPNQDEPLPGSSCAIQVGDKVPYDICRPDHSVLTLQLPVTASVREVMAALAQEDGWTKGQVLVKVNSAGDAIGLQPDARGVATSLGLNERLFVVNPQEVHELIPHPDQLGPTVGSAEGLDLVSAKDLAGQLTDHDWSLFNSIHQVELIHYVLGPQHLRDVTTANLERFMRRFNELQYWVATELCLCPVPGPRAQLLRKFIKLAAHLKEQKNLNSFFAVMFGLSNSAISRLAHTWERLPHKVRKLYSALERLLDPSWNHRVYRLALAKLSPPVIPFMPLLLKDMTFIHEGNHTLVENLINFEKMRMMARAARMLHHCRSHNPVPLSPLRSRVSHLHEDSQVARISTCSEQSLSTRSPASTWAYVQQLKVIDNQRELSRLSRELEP
Procedure: For this, we used the well-characterised EPAC GEF activity assay. The assay is based on the EPAC-stimulated dissociation of fluorescent MANT-GDP from recombinant Rap1 in the presence of excess non-fluorescent nucleotide.
The data are fitted as single exponential decay with off-set (red lines) to obtain the rate constants kobs, as shown in (b).
as §1

Row | SMILES | IC50 (EPAC1-CNB; read-out: IC50, 8-NBD-cAMP binding assay) [µM] | IC50 [1] | GEF Activation (no cAMP), AC50 / induced EPAC2 activity [1] | IC50 [2] [µM] | AC50 ([2]; absence of cAMP) | Kd (EPAC1-CNB) [µM] | IC50 (EPAC1-CNB; IC50, 8-NBD-cAMP binding assay) [µM] | affinity, fold lower than that of cAMP (EPAC1-CNB; competition assay, isolated CNB domain) | Kd ([1]; read-out: affinity for EPAC2 280–993, approximated) [µM] | maximal induced activity, fold lower than that of cAMP ([2]; absence of cAMP)
1 | O=C(COc1ccc2ccccc2c1)NS(=O)(=O)c1ccccc1 [I178, N-(benzenesulfonyl)-2-(naphthalen-2-yloxy)acetamide] | ~40 | 250 µM and ~250 µM | very weak | ~500 | 200 µM and ~200 µM | – | – | – | – | –
2 | Cc1ccc(S(=O)(=O)NC(=O)COc2ccc3ccccc3c2)c(C)c1 [I942, N-(2,4-dimethylbenzenesulfonyl)-2-(naphthalen-2-yloxy)acetamide] | – | 110 µM and ~110 µM | very weak | ~300 | 50 µM and ~50 µM | ~40 | ~35 | about 10 fold | ~5 | around 10 fold
